Measurements: patent US6362352B1, “F18-labeled thia fatty acids and methods of making and using the same” (Duke University, priority 1999, dated 2002)

Key:
[1] = system: isolated rat hearts; assay: Tracer uptake versus palmitate beta-oxidation rate in isolated perfused rat hearts; set-up: species or system Sprague Dawley rats; settings: Langendorff perfusion, 0.15 mM palmitate, 5 mM glucose; both normoxic (95% oxygen) and hypoxic (35% oxygen) conditions
Protocol: Model 4-thia analogs (16-[^18F]fluoro-4-thia-hexadecanoic acid and 12-[^18F]fluoro-4-thia-dodecanoic acid) were examined as tracers in isolated rat hearts. The perfusate was Krebs-Hensleit buffer with 1% albumin, 0.15 mM palmitate, and 5 mM glucose. Sprague Dawley rats (200-225 g) were fed ad libetum. The hearts were excised from pentobarbital-anesthetized animals and perused at 7 ml/min in Langendorff retrograde fashion. The perfusate was gassed with either 95% oxygen (normoxic) or 35% oxygen (hypoxic) gas mixture. The gases comprising the remaining fraction were nitrogen and carbon dioxide (5% for both). The tracer was administered as a bolus or as a pulse infusion into the isolated rat hearts. Pulse infusion allowed absolute quantification of ^18F accumulation rates that reflect the metabolic rate of the tracer in the heart. Clearance rates are measured during the washout phase of these experiments. Beta-oxidation rates of 9,10[^3H] palmitate were measured by collection of venous effluent samples and separation of titrated water.

[2] = system: myocardium; settings: cited from earlier work
[3] = PET imaging studies in patients with ischemic cardiomyopathy; type: in vivo; settings: same subjects
Protocol: PET imaging studies were performed with 16F4THA in patients with ischemic cardiomyopathy. Conventional nuclear medicine perfusion scans were obtained in the same subjects.

## O=C(O)CCCCSCCCCCCCCCCC[18F] [Compound 17F6THA, 17-[^18F]Fluoro-6-thia-heptadecanoic acid]
[1]
  correlation of beta-oxidation rates with uptake rates of the tracer (r): poor correlation

## CCCC([18F])CCCCCCCSCCCCC(=O)O (stereo not shown) [Compound 14F6THA]
[2]; a number of conditions
  tracking of beta-oxidation of palmitate: tracks beta-oxidation of palmitate
[2]; hypoxia with normal blood flow
  sensitivity to inhibition of beta-oxidation in myocardium: insensitive

## O=C(O)CCSCCCCCCCCCCCC[18F] [Compound 16F4THA, 16-[^18F]Fluoro-4-thia-hexadecanoic acid]
[3]
  quality of PET scans compared with conventional nuclear medicine perfusion scans: superior quality
